Assay results as given in BindingDB's records for doi:10.1016/0014-2999(86)90335-3 (Janssen Pharmaceutica, 1986).
Values joined by “and” are separate entries in the source; they are usually repeats but may differ in a detail not shown here. Equal values may be shown once.

Tests used:
[1] = target: T1, Alpha-1A adrenergic receptor (Rattus norvegicus, UniProt P43140)
T1 sequence (P43140 whole entry): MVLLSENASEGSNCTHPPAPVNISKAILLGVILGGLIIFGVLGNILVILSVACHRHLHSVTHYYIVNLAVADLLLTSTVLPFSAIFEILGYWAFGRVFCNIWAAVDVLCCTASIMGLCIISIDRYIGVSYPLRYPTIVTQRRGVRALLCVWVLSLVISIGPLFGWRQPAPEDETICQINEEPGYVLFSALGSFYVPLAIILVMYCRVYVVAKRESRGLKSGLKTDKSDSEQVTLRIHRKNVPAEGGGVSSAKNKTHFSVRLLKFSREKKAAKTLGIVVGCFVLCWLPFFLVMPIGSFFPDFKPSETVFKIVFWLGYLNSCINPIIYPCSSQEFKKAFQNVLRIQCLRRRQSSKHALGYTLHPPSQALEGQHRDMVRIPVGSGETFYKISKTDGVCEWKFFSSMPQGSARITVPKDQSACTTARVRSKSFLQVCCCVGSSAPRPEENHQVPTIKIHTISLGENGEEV

[2] = target: T2, Alpha-2C adrenergic receptor (Rattus norvegicus, UniProt P22086)
T2 sequence (P22086 whole entry): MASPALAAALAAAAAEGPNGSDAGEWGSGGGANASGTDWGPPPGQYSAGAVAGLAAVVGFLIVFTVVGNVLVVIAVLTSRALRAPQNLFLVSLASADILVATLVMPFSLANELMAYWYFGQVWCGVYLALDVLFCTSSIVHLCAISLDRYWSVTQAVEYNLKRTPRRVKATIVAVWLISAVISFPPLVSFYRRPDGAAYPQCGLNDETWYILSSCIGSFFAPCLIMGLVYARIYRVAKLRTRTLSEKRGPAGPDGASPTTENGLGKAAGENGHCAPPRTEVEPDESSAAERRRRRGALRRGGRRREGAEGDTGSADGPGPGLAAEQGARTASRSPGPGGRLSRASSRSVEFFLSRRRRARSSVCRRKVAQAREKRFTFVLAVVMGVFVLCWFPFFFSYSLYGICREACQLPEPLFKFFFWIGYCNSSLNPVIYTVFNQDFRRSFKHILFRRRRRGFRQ

Compound	Ki [1] [nM]	Ki [2]
Cc1nc2n(c(=O)c1CCN1CCC(C(=O)c3ccc(F)cc3)CC1)CCS2 [CAS_86487-64-1]	32	
Cc1ccc2nc(C)c(CCN3CCC(C(=O)c4ccc(F)cc4)CC3)c(=O)n2c1 [CAS_72005]	7.9	10 nM and 2.5 nM and 2.8 nM
CN1C[C@H](C(=O)N[C@]2(C)O[C@@]3(O)[C@@H]4CCCN4C(=O)[C@H](Cc4ccccc4)N3C2=O)C=C2c3cccc4[nH]cc(c34)C[C@H]21 [12'-hydroxy-2'-methyl-5'alpha-(phenylmethyl)ergotaman-3',6',18-trione]	25	12 nM and 4 nM and 3.5 nM and 6.3 nM
N#Cc1ccc2c(c1)N(CCCN1CCC(O)CC1)c1ccccc1S2	4.1	
O=C(c1ccc(F)cc1)C1CCN(CCn2c(=S)[nH]c3ccccc3c2=O)CC1		290 nM and 200 nM and 280 nM and 71 nM
CN1CCN(CC/C=C2/c3ccccc3Sc3ccc(S(=O)(=O)N(C)C)cc32)CC1 [MLS000028463]	25	1200 nM and 1400 nM
c1ccc(CC2=NCCN2)cc1 [Tolazoline]	3200	450 nM and 120 nM and 890 nM and 500 nM
O=C(c1ccc(F)cc1)C1CCN(CCCCn2c(=O)[nH]c3ccccc3c2=O)CC1 [CAS_87051-46-5]	0.45	500 nM and 400 nM and 66 nM and 60 nM
CS(=O)(=O)c1ccc2c(c1)N(CCCN1CCC(C(N)=O)CC1)c1ccccc1S2 [NSC_26388]	2.5	
c1ccc2c(c1)OCC(C1=NCCN1)O2 (configuration not stated)	1000	
Cc1nc2ccccn2c(=O)c1CCN1CCC(C(=O)c2ccc(F)cc2)CC1	20	7.9 nM and 4.5 nM and 18 nM and 20 nM
